According to patent US6681132B1, “Sodium magnetic reasonance imaging used in diagnosing tumors and assessing response to treatment” (The Trustees of Columbia University in the City of New York, priority 1999, dated 2004):

How the values were obtained:
PC3 cell = test: APO-BRDU endlabelling of DNA fragmentation, flow cytometry, PC3; assay type: cell-based, human
Description: (§1) At the end of the treatment period, cells are trypsinized, resuspended in media, resuspended in PBS, resuspended in iced cold methanol free formaldehyde (1% in PBS) for 15 min, resuspended in 70% ethanol and stored at −20° C. until all samples from a given experiment are ready to run (19, 23). Using a very powerful endlabelling technique (APO-BRDU, Phoenix Flow Systems, California) which gives a dynamic range of fluorescence intensities of up to 1000 fold comparing control cells to cells with advanced DNA fragmentation. Results have been confirmed using positive and negative controls provided by Phoenix Flow Systems, camptothecin treated PC3 cells, and a SNAP treated myocyte line.
(§2) Fixed cells are labeled following kit instructions (two washes with kit buffer, overnight endlabelling, two resuspensions in a rinse buffer, exposure to fluorescent antibody and treatment with propidium iodide and RNAase. Flow cytometry is performed on a Becton/Dickenson FACStar II. Individual fluorescence intensity values for 10,000 cells are obtained for each sample.
To specifically assay DNA fragmentation, a downstream response to apoptosis, uses of a terminal deoxynucleotidyl transferase labeling approach whereby fluorescent moieties are enzymatically attached to all DNA fragment ends. (FIG. 3a) The technique which was used, has a dynamic range of approximately ×1000 (FIG. 2). […]

LNCaP = test: APO-BRDU endlabelling of DNA fragmentation, flow cytometry, LNCaP; assay type: cell-based, human
Description: as §1, §2
To specifically assay DNA fragmentation, a downstream response to apoptosis, uses of a terminal deoxynucleotidyl transferase labeling approach whereby fluorescent moieties are enzymatically attached to all DNA fragment ends. (FIG. 3a) The technique which was used, has a dynamic range of approximately ×1000 (FIG. 2). This allows for making very quantitative comparisons of DNA fragmentation on a cell to cell basis using flow cytometry, and to further examine the relative drug sensitivity profiles of the 3 cell lines.

PC3 tumors = test: Inversion recovery (IR) weighted sodium MRI of PC3 tumors after chemotherapy; assay type: in vivo, nude mice; settings: for increase in maximum IR sodium image intensity: PC3 tumors, 24 hrs vs predrug, 25 msec inversion time, normalized to brighter phantom, taxotere 1.5 mg, VP-16 0.2-0.4 mg, femoral vein
Description: (§3) (A) Chemotherapy and inversion recovery MR imaging—Following acquisition of control images, antineoplastics were administered. All IR images and SQ images were normalized to the brightest phantom within each slice (i.e., 40% Ficoll for IR and 30% Ficoll for SQ respectively). All tumors were analyzed by examining changes in intensity at the brightest—usually central area—of the tumor image. It was clearly identifiable both from manual examination with line profiles or from the pixel density histogram derived from a region of interest analysis. […] Results from PC3 tumors (solid lines, filled circles) and DU145 tumors (dashed lines, open circles) are plotted together. In two experiments with control saline injections (not shown in graphs), there were small decreases of 5.5% (NS) at 24 hours and 3.5% (NS) at 48 hours.
In vivo detection of antineoplastic effects using weighted sodium MR images—Examination of the effect of chemotherapy on the IR sodium image in a series of PC3 and DU145 tumors was studied. Control and post-therapy images were acquired in sixteen mice, and tumors in two additional mice had images reacquired at both 24 and 48 hrs following control saline injection. […] Results are plotted as change in maximum image intensity for each drug separately (top panel, FIG. 4, taxotere; bottom panel, FIG. 4, VP-16 etoposide). Elevation is significant for each drug taken separately for the more numerous PC3 tumor experiments (taxotere, 32% increase at p<0.001, n=5; VP-16, 38% increase at p<0.0005, n=7); and is also significant for all PC3 experiments measured at 48 hrs (28%, p<0.05, n=11).
All imaging experiments were performed on a high field (4.23 Tesla) whole body MRI system. A small quadrature birdcage radiofrequency coil (50 mm ID, Morris Inc.) and a high strength gradient insert coil (30 mT/m, Bruker model G-33) were employed. Acquisition parameters were TR=100 msec, TE=5.6 msec, FOV=40 mm, slice thickness=2.5 mm, flip angle=90° , inversion time=25 msec, acquisition matrix was 64×64×8. The two phantoms on all animal images shown were identical (P1-30% Ficoll in 200 mM NaCl; P2-40% Ficoll in 200 mM NaCl). All animal images were normalized to the brighter phantom (e.g. P1 on the SQ, P2 on the IR). Animals were positioned in a specially designed animal holder, allowing for reproducible tumor placement.
Two adjacent slices from a 3 dimensional gradient echo image set of a PC3 tumor are shown before (FIGS. 5, A&B) and 48 hrs after (FIGS. 5, C&D) injection of 1.5 mg taxotere to the nude mouse. […] The second example illustrates the contribution of this technique at its limit of resolution.
Inversion recovery images (25 msec inversion time) were acquired for 16 nude mouse tumors following chemotherapy. […]

L cells = settings: cited from earlier work
PC3 and DU145 tumors = test: IR sodium MRI, PC3 and DU145 tumors taken as a whole; assay type: in vivo, nude mice; settings: PC3 and DU145 tumors plotted together
Description: as §3, with “In two experiments with control saline injections (not shown in graphs), there were small decreases of 5.5% (NS) at 24 hours and 3.5% (NS) at 48 hours.” left out
In vivo detection of antineoplastic effects using weighted sodium MR images—Examination of the effect of chemotherapy on the IR sodium image in a series of PC3 and DU145 tumors was studied. […] Elevation is significant for each drug taken separately for the more numerous PC3 tumor experiments (taxotere, 32% increase at p<0.001, n=5; VP-16, 38% increase at p<0.0005, n=7); and is also significant for all PC3 experiments measured at 48 hrs (28%, p<0.05, n=11). […]
The effect of chemotherapy on the IR sodium image intensity in PC3 and DU145 tumors was consistent with the culture results. […] These values were calculated from human doses using standard equations which convert weight to surface area for small mammals. […]

SMILES	time course of DNA fragmentation (PC3 cell)	DNA fragmentation response (LNCaP; 24 hrs)	DNA fragmentation response (LNCaP; 44 hrs)	increase in maximum IR sodium image intensity (PC3 tumors)	detectability of tumor on IR image (PC3 tumors; elongated PC3 tumor, 24 hr after injection of 0.3 mg)	effect on total cellular monovalent cations (L cells; K+ loss exceeds Na+ gain)	effect on [Cai] (L cells; L cells)	effect on [Nai] (L cells; L cells)	effect on pHi (L cells; L cells)	IR image intensity at 24 hrs versus control (graphs) (PC3 and DU145 tumors)	spatial change of tumor on inversion recovery image (PC3 tumors; PC3 tumor, 48 hrs after injection of 1.5 mg)
COc1cc([C@@H]2c3cc4c(cc3[C@@H](O[C@@H]3O[C@@H]5CO[C@@H](C)O[C@H]5[C@H](O)[C@H]3O)[C@H]3COC(=O)[C@H]23)OCO4)cc(OC)c1O [VP-16, etoposide]	continues to develop beyond the 24-hr sample point	almost no response	significant DNA fragmentation	38%	readily apparent following chemotherapy	net reduction	elevate	elevate	lowers	increased image intensity	–
CC(=O)O[C@@]12CO[C@@H]1C[C@H](O)[C@@]1(C)C(=O)[C@H](O)C3=C(C)[C@@H](OC(=O)[C@H](O)[C@@H](NC(=O)OC(C)(C)C)c4ccccc4)C[C@@](O)([C@@H](OC(=O)c4ccccc4)[C@H]21)C3(C)C [taxotere]	continues to develop beyond the 24-hr sample point	almost no response	significant DNA fragmentation	32%	–	–	–	–	–	increased image intensity	clear spatial broadening of the tumor
